The target of this assay is T1, TcMCU-EMRE (TcMCU-EMREEM2) (Tribolium castaneum, UniProt D6WIX5).
T1 construct: gene MCU; MCU without N-terminal domain (residues 1-168 removed), covalently fused to EMRE by flexible peptide linker; tetramer; Venus fusion removed by PreScission cleavage; expressed in Expi293 cells; purified, reconstituted in liposomes and planar bilayer; with Essential MCU regulator, mitochondrial
T1 sequence (D6WIX5 169-367): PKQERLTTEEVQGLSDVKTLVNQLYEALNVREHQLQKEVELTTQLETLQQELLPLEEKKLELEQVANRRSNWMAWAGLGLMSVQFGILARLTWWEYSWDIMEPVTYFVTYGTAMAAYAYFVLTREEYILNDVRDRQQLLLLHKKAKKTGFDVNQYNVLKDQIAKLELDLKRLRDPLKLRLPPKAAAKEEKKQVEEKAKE
T1 sequence (D6X268 1-90 partner): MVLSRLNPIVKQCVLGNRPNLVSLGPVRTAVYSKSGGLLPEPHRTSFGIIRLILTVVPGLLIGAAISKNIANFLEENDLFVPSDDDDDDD
In words: planar lipid bilayer electrophysiology, inhibition of macroscopic Ca2+ currents. It is filed as biochemical. The conditions noted are these: symmetric 40 mM CaCl2, -160 mV, pH 7.6, 22-24 C; RuRed titrated in trans chamber with 1 uM RuRed in cis; IMS-side blocker.

The term IC50 denotes the point on the concentration scale where inhibition reaches its midpoint. A low value points to greater potency in that assay. As to `Cl.Cl.Cl.Cl.Cl.Cl.N.N.N.N.N.N.N.N.N.N.N.N.N.N.[O-2].[O-2].[Ru+3].[Ru+3].[Ru+4]` [ruthenium red], the IC50 was roughly 40 nM.
